In ChEMBL document CHEMBL4316632, “Antiplasmodial Diterpenoids from Psiadia arguta” (J Nat Prod, 2019):

System: Plasmodium falciparum
Assay: Antiplasmodial activity against Plasmodium falciparum 3D7 assessed as reduction in parasite viability incubated for 48 hrs by APAD colorimetric test
Format: functional, organism-based
Details: 3D7, 48 h

| Compound | IC50 |
| --- | --- |
| CC(=O)OCC[C@@H](C)CC[C@@H]1[C@@]2(C)CCCC(C)(C)[C@@H]2CC[C@@]1(C)O | 33.2 µM |
| C/C(=C\CO)CC[C@@H]1[C@@]2(C)CCCC(C)(C)[C@@H]2CC[C@@]1(C)O | 36.6 µM |
| CCC(C)CC(=O)OCCC(C)CC[C@@H]1[C@@]2(C)CCCC(C)(C)[C@@H]2CC[C@@]1(C)O (some centres undefined) | 54.8 µM |
| CC(=O)OC/C=C(\C)CC[C@@H]1[C@@]2(C)CCCC(C)(C)[C@@H]2CC[C@@]1(C)O | 29.1 µM |
| CC(CCOC(=O)CC(C)CC[C@H]1[C@]2(C)CCCC(C)(C)[C@H]2CC[C@]1(C)O)CC[C@@H]1[C@@]2(C)CCCC(C)(C)[C@@H]2CC[C@@]1(C)O (some centres undefined) | > 50 µg/mL |
| CCC(C)C(=O)OCCC(C)CC[C@@H]1[C@@]2(C)CCCC(C)(C)[C@@H]2CC[C@@]1(C)O (some centres undefined) | 58 µM |
| CC(CCOC=O)CC[C@@H]1[C@@]2(C)CCCC(C)(C)[C@@H]2CC[C@@]1(C)O (some centres undefined) | 73 µM |
| C[C@H](CCO)CC[C@@H]1[C@@]2(C)CCCC(C)(C)[C@@H]2CC[C@@]1(C)O [LABDANEDIOL] | 22.2 µM |
| C=C[C@](C)(O)CC[C@@H]1[C@@]2(C)CCCC(C)(C)[C@@H]2CC[C@@]1(C)O [SCLAREOL] | 35 µM |
